Each molecule was assayed on cholesterol absorption from the intestine (assay: In Vivo Assay of Hypolipidemic Agents using the Rat Cholesterol Absorption Model). Settings: Table 2, perorally, 1 mg/kg, 3H levels in serum three hours after 3H-cholesterol, versus vehicle only control.
Design: species or system Female Sprague-Dawley rats
Summary of the method: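 Fasted female Sprague-Dawley rats (150–250 g, 4–6/group) received compound orally in olive oil or vehicle. Thirty minutes later they were given 3–5 µCi ^3H-cholesterol orally in olive oil, and serum ^3H was counted at 3 h. Percent inhibition versus vehicle control is at a fixed dose; ED50 is the dose giving half-maximal effect on serum ^3H.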
O=C1[C@H](CC[C@H](O)c2ccc(F)cc2)[C@@H](c2ccc(-c3cccc(P(=O)(O)O)c3)cc2)N1c1ccccc1 [Example 122, (4'-{(2S,3R)-3-[(3S)-3-(4-fIuorophenyI)-3-hydroxypropyl]-4-oxo-1-phenylazetidin-2-yl}biphenyl-3-yl)phosphonic acid] was tested, and the “% inhibition at 1 mg/kg” value was 67%.

Same assay, conditions: po, Table 1, perorally, 1 mg/kg, 3H levels in serum three hours after 3H-cholesterol, versus vehicle only control
COc1cc(OC)cc(-c2ccc([C@@H]3[C@@H](CC[C@H](O)c4ccc(F)cc4)C(=O)N3c3ccc(F)cc3)cc2)c1 [Example 107, (3R,4S)-4-(3',5'-dimethoxybiphenyl-4-yl)-1-(4-fluorophenyl)-3-[(3S)-3-(4-fluorophenyl)-3-hydroxypropyl]azetidin-2-one] was tested, and the inhibition at 1 mg/kg was 49%. O=C1[C@H](CC[C@H](O)c2ccc(F)cc2)[C@@H](c2ccc(-c3ccc(O)cc3O)cc2)N1c1ccc(F)cc1 [Example 108, (3R,4S)-4-(2',4'-dihydroxybiphenyl-4-yl)-1-(4-fluorophenyl)-3-[(3S)-3-(4-fluorophenyl)-3-hydroxypropyl]azetidin-2-one] was tested, and the inhibition at 1 mg/kg was 69%. Molecule CCCCOc1cccc(-c2ccc([C@@H]3[C@@H](CC[C@H](O)c4ccc(F)cc4)C(=O)N3c3ccc(F)cc3)cc2)c1 [Example 109, (3R,4S)-4-(3'-butoxybiphenyl-4-yl)-1-(4-fluorophenyl)-3-[(3S)-3-(4-fluorophenyl)-3-hydroxypropyl]azetidin-2-one] has an inhibition at 1 mg/kg of 52%. O=C(O)c1ccc(-c2ccc([C@@H]3[C@@H](CC[C@H](O)c4ccc(F)cc4)C(=O)N3c3ccc(F)cc3)cc2)cc1O [Example 110, 4'-{(2S,3R)-1-(4-fluorophenyl)-3-[(3S)-3-(4-fluorophenyl)-3-hydroxypropyl]-4-oxoazetidin-2-yl}-3-hydroxybiphenyl-4-carboxylic acid] was tested, and the inhibition at 1 mg/kg was 72%. COc1cc(F)cc(-c2ccc([C@@H]3[C@@H](CC[C@H](O)c4ccc(F)cc4)C(=O)N3c3ccc(F)cc3)cc2)c1 [Example 111, (3R,4S)-4-(3'-fluoro-5'-methoxybiphenyl-4-yl)-1-(4-fluorophenyl)-3-[(3S)-3-(4-fluorophenyl)-3-hydroxypropyl]azetidin-2-one] gave an inhibition at 1 mg/kg of 72%. O=C1[C@H](CC[C@H](O)c2ccc(F)cc2)[C@@H](c2ccc(-c3cc(O)cc(F)c3)cc2)N1c1ccc(F)cc1 [Example 112, (3R,4S)-4-(3'-fluoro-5'-hydroxybiphenyl-4-yl)-1-(4-fluorophenyl)-3-[(3S)-3-(4-fluorophenyl)-3-hydroxypropyl]azetidin-2-one] was tested, and the inhibition at 1 mg/kg was 75%. Work on O=C1[C@H](CC[C@H](O)c2ccc(F)cc2)[C@@H](c2ccc(-c3cccc([C@@H]4O[C@@H](CO)[C@H](O)[C@@H](O)[C@@H]4O)c3)cc2)N1c1ccc(F)cc1 [Example 113, (1S)-1,5-anhydro-1-(4'-{(2S,3R)-1-(4-fluorophenyl)-3-[(3S)-3-(4-fluorophenyl)-3-hydroxypropyl]-4-oxoazetidin-2-yl}biphenyl-3-yl)-L-glucitol] yielded an inhibition at 1 mg/kg of 67%. With O=C1[C@H](CC[C@H](O)c2ccc(F)cc2)[C@@H](c2ccc(-c3cc(O)cc(O)c3)cc2)N1c1ccc(F)cc1 [Example 114, (3R,4S)-4-(3',5'-dihydroxybiphenyl-4-yl)-1-(4-fluorophenyl)-3-[(3S)-3-(4-fluorophenyl)-3-hydroxypropyl]azetidin-2-one] the inhibition at 1 mg/kg was 72%. Molecule O=C1[C@H](CC[C@H](O)c2ccc(F)cc2)[C@@H](c2ccc(-c3cccc(B(O)O)c3)cc2)N1c1ccc(F)cc1 [Example 115, (4'-{(2S,3R)-1-(4-fluorophenyl)-3-[(3S)-3-(4-fluorophenyl)-3-hydroxypropyl]-4-oxoazetidin-2-yl}biphenyl-3-yl)boronic acid] has an inhibition at 1 mg/kg of 70%. O=C1[C@H](CC[C@H](O)c2ccc(F)cc2)[C@@H](c2ccc(-c3ccc([C@H]4O[C@@H](CO)[C@H](O)[C@@H](O)[C@@H]4O)cc3)cc2)N1c1ccc(F)cc1 [Example 116, (1R)-1,5-anhydro-1-(4'-{(2S,3R)-1-(4-fluorophenyl)-3-[(3S)-3-(4-fluorophenyl)-3-hydroxypropyl]-4-oxoazetidin-2-yl}biphenyl-4-yl)-L-glucitol] gave an inhibition at 1 mg/kg of 81%. O=C1[C@H](CC[C@H](O)c2ccc(F)cc2)[C@@H](c2ccc(-c3cccc(C[C@@H]4O[C@H](CO)[C@@H](O)[C@H](O)[C@H]4O)c3)cc2)N1c1ccc(F)cc1 [Example 117, 2,6-anhydro-1-deoxy-1-(4'-{(2S,3R)-1-(4-fluorophenyl)-3-[(3S)-3-(4-fluorophenyl)-3-hydroxypropyl]-4-oxoazetidin-2-yl}biphenyl-3-yl)-D-glycero-D-gulo-heptitol] was tested, and the inhibition at 1 mg/kg was 26%. Molecule O=C1[C@H](CC[C@H](O)c2ccc(F)cc2)[C@@H](c2ccc(-c3cccc(S(=O)(=O)O)c3)cc2)N1c1ccc(F)cc1 [Example 118, 4'-{(2S,3R)-1-(4-fluorophenyl)-3-[(3S)-3-(4-fluorophenyl)-3-hydroxypropyl]-4-oxoazetidin-2-yl}biphenyl-3-sulfonic acid] has an inhibition at 1 mg/kg of 61%. Molecule O=C1[C@H](CC[C@H](O)c2ccc(F)cc2)[C@@H](c2ccc(-c3cccc(S)c3)cc2)N1c1ccc(F)cc1 [Example 119, (3R,4S)-1-(4-fluorophenyl)-3-[(3S)-3-(4-fluorophenyl)-3-hydroxypropyl]-4-(3'-mercaptobiphenyl-4-yl)azetidin-2-one] has an inhibition at 1 mg/kg of 56%. C[N+](C)(C)c1cccc(-c2ccc([C@@H]3[C@@H](CC[C@H](O)c4ccc(F)cc4)C(=O)N3c3ccc(F)cc3)cc2)c1 [Example 120, 4'-{(2S,3R)-1-(4-fluorophenyl)-3-[(3S)-3-(4-fluorophenyl)-3-hydroxypropyl]-4-oxoazetidin-2-yl}-N,N,N-trimethylbiphenyl-3-aminium] gave an inhibition at 1 mg/kg of 23%.

Same assay, conditions: po, Table 2, perorally, 1 mg/kg, 3H levels in serum three hours after 3H-cholesterol, versus vehicle only control
In the case of O=C1[C@H](CC[C@H](O)c2ccc(F)cc2)[C@@H](c2ccc(-c3cccc(O)c3)cc2O)N1c1ccc(F)cc1 [Example 121, (3R,4S)-4-(3,3'-dihydroxybiphenyl-4-yl)-1-(4-fluorophenyl)-3-[(3S)-3-(4-fluorophenyl)-3-hydroxypropyl]azetidin-2-one], the inhibition at 1 mg/kg is reported as 72%. In the case of CS(=O)(=O)c1cccc(-c2ccc([C@@H]3[C@@H](CC[C@H](O)c4ccc(F)cc4)C(=O)N3c3ccccc3)c(O)c2)c1 [Example 123, (3R,4S)-3-[(3S)-3-(4-fluorophenyl)-3-hydroxypropyl]-4-[3-hydroxy-3'-(methylsulfonyl)biphenyl-4-yl]-1-phenylazetidin-2-one], the inhibition at 1 mg/kg is reported as 72%. Work on O=C1[C@H](CC[C@H](O)c2ccc(F)cc2)[C@@H](c2ccc(-c3cccc(O)c3)cc2)N1c1ccc(-c2ccccc2)cc1 [Example 124, (3R,4S)-1-biphenyl-4-yl-3-[(3S)-3-(4-fluorophenyl)-3-hydroxypropyl]-4-(3'-hydroxybiphenyl-4-yl)azetidin-2-one] yielded an inhibition at 1 mg/kg of 48%. O=C1[C@H](CC[C@H](O)c2ccc(F)cc2)[C@@H](c2ccc(-c3ccc(O)cc3)cc2O)N1c1ccccc1 [Example 125, (3R,4S)-4-(3,4'-dihydroxybiphenyl-4-yl)-3-[(3S)-3-(4-fluorophenyl)-3-hydroxypropyl]-1-phenylazetidin-2-one] showed an inhibition at 1 mg/kg of 64%. In the case of O=C1[C@H](CC[C@H](O)c2ccc(F)cc2)[C@@H](c2ccc(-c3ccc(P(=O)(O)O)cc3)cc2O)N1c1ccccc1 [Example 127, (4'-{(2S,3R)-3-[(3S)-3-(4-Fluorophenyl)-3-hydroxypropyl]-4-oxo-1-phenylazetidin-2-yl}-3'-hydroxybiphenyl-4-yl)phosphonic acid], the inhibition at 1 mg/kg is reported as 58%. O=C1[C@H](CC[C@H](O)c2ccc(F)cc2)[C@@H](c2ccc(-c3ccc(S(=O)(=O)O)cc3)cc2O)N1c1ccccc1 [Example 128, Sodium 4'-{(2S,3R)-3-[(3S)-3-(4-fluorophenyl)-3-hydroxypropyl]-4-oxo-1-phenylazetidin-2-yl}-3'-hydroxybiphenyl-4-sulfonate] showed an inhibition at 1 mg/kg of 60%.

From patent publication EP1832576A1, “4-Biarylyl-1-phenolyzetidin-2-ones” (Microbia Inc., priority 2003, dated 2005)
